Key:
[1] = target: purified human Factor XIa (Homo sapiens (Human), UniProt P03951); experiment: Factor XIa Assay; type: biochemical; settings: purified human Factor XIa 40 pM, substrate Z-Gly-Pro-Arg-AFC, pH 7.4; read-out: FXIa IC50
Procedure: The effectiveness of a compound of the present invention as an inhibitor of Coagulation Factor XIa can be determined using a relevant purified serine protease, and an appropriate synthetic substrate. The rate of hydrolysis of the chromogenic or fluorogenic substrate by the relevant serine protease was measured both in the absence and presence of compounds of the present invention. Assays were conducted at room temperature or at 37° C. […] A decrease in the rate of fluorescence change in the presence of inhibitor is indicative of enzyme inhibition. Such methods are known to one skilled in the art. […]
Factor XIa determinations were made in 50 mM HEPES buffer at pH 7.4 containing 150 mM NaCl, 5 mM CaCl2, and 0.1% PEG 8000 (polyethylene glycol; JT Baker or Fisher Scientific). Determinations were made using purified human Factor XIa at a final concentration of 40 pM (Sekisui Diagnostics) and he synthetic substrate, Z-Gly-Pro-Arg-AFC, TFA salt (Sigma #C0980) at a concentration of 100 µM.
Activity assays were performed by diluting a stock solution of substrate at least tenfold to a final concentration ≦0.1 Km into a solution containing enzyme or enzyme equilibrated with inhibitor. Times required to achieve equilibration between enzyme and inhibitor were determined in control experiments. Initial velocities of product formation in the absence (Vo) or presence of inhibitor (Vi) were measured. Assuming competitive inhibition, and that unity is negligible compared Km/[S], [I]/e, and [I]/e (where [S], [I], and e respectively represent the total concentrations, of substrate, inhibitor and enzyme), the equilibrium constant (Ki) for dissociation of the inhibitor from the enzyme can be obtained from the dependence of Vo/Vi on [I] shown in the following equation.

[2] = target: purified Human plasma kallikrein (Homo sapiens (Human), UniProt P03952); experiment: Kallikrein Assay; type: biochemical; settings: purified Human plasma kallikrein 0.5 nM, substrate Acetyl-K-P-R-AFC, pH 7.4; read-out: P. KLK IC50
Procedure: The effectiveness of a compound of the present invention as an inhibitor of Kallikrein can be determined using a relevant purified serine protease, and an appropriate synthetic substrate. The rate of hydrolysis of the chromogenic or fluorogenic substrate by the relevant serine protease was measured both in the absence and presence of compounds of the present invention. Assays were conducted at room temperature or at 37° C. […] A decrease in the rate of fluorescence change in the presence of inhibitor is indicative of enzyme inhibition. Such methods are known to one skilled in the art. The results of this assay are expressed as the inhibitory constant, Ki.
Kallikrein determinations were made in 50 mM HEPES buffer at pH 7.4 containing 150 mM NaCl, 5 mM CaCl2, and 0.1% PEG 8000 (polyethylene glycol; Fisher Scientific). Determinations were made using purified Human plasma kallikrein at a final concentration of 0.5 nM (Enzyme Research Laboratories) and the synthetic substrate, Acetyl-K-P-R-AFC (Sigma # C6608) at a concentration of […].
Activity assays were performed by diluting a stock solution of substrate at least tenfold to a final concentration ≦0.2 Km into a solution containing enzyme or enzyme equilibrated with inhibitor. Times required to achieve equilibration between enzyme and inhibitor were determined in control experiments. The reactions were performed under linear progress curve conditions and fluorescence increase measured at 405 Ex/510 Em nm. Values were converted to percent inhibition of the control reaction (after subtracting 100% Inhibition value). IC50 was determined by inflection point from a four parameter logistic curve fit. Ki was calculated using the Cheng Prusoff equation, Ki=IC50/(1+([S]/Km)).

purified human Factor XIa, sequence (P03951 388-625): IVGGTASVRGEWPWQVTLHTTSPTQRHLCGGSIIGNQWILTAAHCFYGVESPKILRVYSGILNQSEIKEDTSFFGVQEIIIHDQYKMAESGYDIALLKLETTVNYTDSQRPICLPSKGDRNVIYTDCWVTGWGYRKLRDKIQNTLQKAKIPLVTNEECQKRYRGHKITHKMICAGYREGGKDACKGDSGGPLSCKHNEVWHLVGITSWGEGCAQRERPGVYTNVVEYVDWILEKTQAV
purified human Factor XIa, sequence (P03951 19-387 partner): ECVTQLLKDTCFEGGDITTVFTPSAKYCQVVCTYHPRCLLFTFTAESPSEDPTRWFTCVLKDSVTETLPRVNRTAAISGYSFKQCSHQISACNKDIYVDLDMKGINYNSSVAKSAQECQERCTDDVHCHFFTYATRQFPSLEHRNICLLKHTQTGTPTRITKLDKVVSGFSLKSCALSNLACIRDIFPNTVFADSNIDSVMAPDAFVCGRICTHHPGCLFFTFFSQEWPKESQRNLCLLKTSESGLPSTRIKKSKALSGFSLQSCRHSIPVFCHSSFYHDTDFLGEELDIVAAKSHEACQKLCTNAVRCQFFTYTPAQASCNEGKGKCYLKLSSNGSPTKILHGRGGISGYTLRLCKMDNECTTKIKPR
purified Human plasma kallikrein, sequence (P03952 391-638): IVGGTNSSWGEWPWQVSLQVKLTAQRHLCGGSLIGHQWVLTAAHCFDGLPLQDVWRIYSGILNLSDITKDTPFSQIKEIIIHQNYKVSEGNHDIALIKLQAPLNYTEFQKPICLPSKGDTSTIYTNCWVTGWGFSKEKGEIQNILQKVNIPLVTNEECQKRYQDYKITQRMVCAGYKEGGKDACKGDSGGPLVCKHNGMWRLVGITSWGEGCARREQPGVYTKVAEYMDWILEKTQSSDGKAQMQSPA
purified Human plasma kallikrein, sequence (P03952 20-390 partner): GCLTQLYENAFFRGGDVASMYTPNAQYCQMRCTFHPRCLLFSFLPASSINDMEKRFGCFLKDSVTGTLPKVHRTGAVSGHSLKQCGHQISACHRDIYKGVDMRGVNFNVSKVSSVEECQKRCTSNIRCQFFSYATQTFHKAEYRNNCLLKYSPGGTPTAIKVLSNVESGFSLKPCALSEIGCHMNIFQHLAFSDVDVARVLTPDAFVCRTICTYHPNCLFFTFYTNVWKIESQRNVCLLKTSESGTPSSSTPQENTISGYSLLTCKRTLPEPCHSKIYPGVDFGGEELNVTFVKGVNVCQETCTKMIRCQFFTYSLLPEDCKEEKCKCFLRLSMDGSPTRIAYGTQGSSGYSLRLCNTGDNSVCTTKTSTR

IC50 [1] [nM] | IC50 [2] [nM] | SMILES
109 | 91.4 | O=C(Nc1ccc2cn[nH]c2c1)C(Cc1ccccc1)c1ccc(-c2c(F)ccc(Cl)c2F)c[n+]1[O-] (racemic) [Example 5, 2-[5-(3-chloro-2,6-difluorophenyl)-1-oxidopyridin-2-yl]-N-1H-indazol-6-yl-3-phenylpropanamide]
0.24 | 1.9 | O=C(Nc1ccc2cn[nH]c2c1)C(Cc1ccccc1)c1ccc(-c2cc(Cl)ccc2-n2cnnn2)c[n+]1[O-] (racemic) [Example 6, 2-{5-[5-chloro-2-(1H-tetrazol-1-yl)phenyl]-1-oxidopyridin-2-yl}-N-1H-indazol-6-yl-3-phenylpropanamide]
30.6 | 1880 | NCc1ccc(Cl)cc1-c1ccc(C(CC2CC2)C(=O)Nc2ccc(C(=O)O)cc2)[n+]([O-])c1 (racemic) [Example 40, 4-[(2-{5-[2-(aminomethyl)-5-chlorophenyl]-1-oxidopyridin-2-yl}-3-cyclopropylpropanoyl)amino]benzoic acid]
8.45 | 1610 | O=C(O)c1ccc(NC(=O)C(CC2CC2)c2ccc(-c3cc(Cl)ccc3-n3cc(CO)nn3)c[n+]2[O-])cc1 (racemic) [Example 42, 4-{[2-(5-{5-chloro-2-[4-(hydroxymethyl)-1H-1,2,3-triazol-1-yl]phenyl}-1-oxidopyridin-2-yl)-3-cyclopropylpropanoyl]amino}benzoic acid]
0.19 | 25.1 | O=C(O)c1ccc(NC(=O)C(CC2CC2)c2ccc(-c3c(-n4cnnn4)ccc(Cl)c3F)c[n+]2[O-])cc1 (racemic) [Example 50, 4-[(2-{5-[3-chloro-2-fluoro-6-(1H-tetrazol-1-yl)phenyl]-1-oxidopyridin-2-yl}-3-cyclopropylpropanoyl)amino]benzoic acid]
111 | 45 | O=C(NC12CCC(C(=O)O)(CC1)CC2)C(Cc1ccccc1)c1ccc(-c2c(F)ccc(Cl)c2F)c[n+]1[O-] (single isomer, unassigned) [Example 15, 4-({2-[5-(3-chloro-2,6-difluorophenyl)-1-oxidopyridin-2-yl]-3-phenylpropanoyl}amino) bicyclo[2.2.2]octane-1-carboxylic acid]
0.76 | 144 | O=C(NC12CCC(C(=O)O)(CC1)CC2)C(Cc1ccccc1)c1ccc(-c2cc(Cl)ccc2-n2cnnn2)c[n+]1[O-] (single isomer, unassigned) [Example 17, 4-[(2-{5-[5-chloro-2-(1H-tetrazol-1-yl)phenyl]-1-oxidopyridin-2-yl}-3-phenylpropanoyl)amino] bicyclo[2.2.2]octane-1-carboxylic acid]
4.1 | 9.2 | COC(=O)NC12CCC(NC(=O)C(Cc3ccccc3)c3ccc(-c4cc(Cl)ccc4-n4cnnn4)c[n+]3[O-])(CC1)CC2 (single isomer, unassigned) [Example 19, methyl {4-[(2-{5-[5-chloro-2-(1H-tetrazol-1-yl)phenyl]-1-oxidopyridin-2-yl}-3-phenylpropanoyl)amino]bicyclo[2.2.2]oct-1-yl}carbamate]
9.39 | 24.6 | COc1cc(C(Cc2ccccc2)C(=O)Nc2ccc(C(=O)O)cc2)[n+]([O-])cc1-c1cc(Cl)ccc1C#N (single isomer, unassigned) [Example 23, 2-(1-((4-carboxyphenyl)amino)-1-oxo-3-phenylpropan-2-yl)-5-(5-chloro-2-cyanophenyl)-4-methoxypyridine 1-oxide]
0.29 | 0.7 | COc1cc(C(Cc2ccccc2)C(=O)Nc2ccc(C(=O)O)cc2)[n+]([O-])cc1-c1cc(Cl)ccc1C#N (single isomer, unassigned) [Example 24, 2-(1-((4-carboxyphenyl)amino)-1-oxo-3-phenyl-propan-2-yl)-5-(5-chloro-2-cyanophenyl)-4-methoxypyridine 1-oxide]
4.24 | 80.4 | N#Cc1ccc(Cl)c(F)c1-c1ccc(C(CC2CC2)C(=O)Nc2ccc(C(=O)O)cc2)[n+]([O-])c1 (single isomer, unassigned) [Example 30, 4-({2-[5-(3-chloro-6-cyano-2-fluorophenyl)-1-oxidopyridin-2-yl]-3-cyclopropylpropanoyl}amino)benzoic acid]
3.37 | 692 | O=C(O)c1ccc(NC(=O)C(CC2CC2)c2ccc(-c3cc(Cl)ccc3-n3cnnn3)c[n+]2[O-])c(Cl)c1 (single isomer, unassigned) [Example 32, 3-chloro-4-[(2-{5-[5-chloro-2-(1H-tetrazol-1-yl)phenyl]-1-oxidopyridin-2-yl}-3-cyclopropylpropanoyl)amino]benzoic acid]
5.65 | 408 | O=C(O)c1ccc(NC(=O)C(CC2CC2)c2ccc(-c3cc(Cl)ccc3-c3cnco3)c[n+]2[O-])cc1 (single isomer, unassigned) [Example 35, 4-[(2-{5-[5-chloro-2-(1,3-oxazol-5-yl)phenyl]-1-oxidopyridin-2-yl}-3-cyclopropylpropanoyl)amino]benzoic acid]
18.9 | 830 | O=C(O)c1ccc(NC(=O)C(CC2CC2)c2ccc(-c3cc(Cl)ccc3OC(F)(F)F)c[n+]2[O-])cc1 (single isomer, unassigned) [Example 39, 4-[(2-{5-[5-chloro-2-(trifluoromethoxy)phenyl]-1-oxidopyridin-2-yl}-3-cyclopropylpropanoyl)amino]benzoic acid]
18 | 3260 | O=C(O)c1ccc(NC(=O)C(CC2CC2)c2ccc(-c3cc(Cl)ccc3-n3cnnn3)c[n+]2[O-])cc1F (single isomer, unassigned) [Example 44, 4-[(2-{5-[5-chloro-2-(1H-tetrazol-1-yl)phenyl]-1-oxidopyridin-2-yl}-3-cyclopropylpropanoyl)amino]-2-fluorobenzoic acid]
0.07 | 17.6 | O=C(O)c1ccc(NC(=O)C(CC2CC2)c2ccc(-c3cc(Cl)ccc3-n3cnnn3)c[n+]2[O-])cc1F (single isomer, unassigned) [Example 45, 4-[(2-{5-[5-chloro-2-(1H-tetrazol-1-yl)phenyl]-1-oxidopyridin-2-yl}-3-cyclopropylpropanoyl)amino]-2-fluorobenzoic acid]
15.1 | 2350 | Cc1cc(C(=O)O)ccc1NC(=O)C(CC1CC1)c1ccc(-c2cc(Cl)ccc2-n2cnnn2)c[n+]1[O-] (single isomer, unassigned) [Example 47, 4-[(2-{5-[5-chloro-2-(1H-tetrazol-1-yl)phenyl]-1-oxidopyridin-2-yl}-3-cyclopropylpropanoyl)amino]-3-methylbenzoic acid]
0.46 | 83.1 | Cc1cc(NC(=O)C(CC2CC2)c2ccc(-c3cc(Cl)ccc3-n3cnnn3)c[n+]2[O-])ccc1C(=O)O (single isomer, unassigned) [Example 48, 4-[(2-{5-[5-chloro-2-(1H-tetrazol-1-yl)phenyl]-1-oxidopyridin-2-yl}-3-cyclopropylpropanoyl)amino]-2-methylbenzoic acid]
– | 85.6 | O=C(O)c1ccc(NC(=O)C(CC2CC2)c2ccc(-c3cc(Cl)ccc3-n3cc(C(F)F)nn3)c[n+]2[O-])cc1 (single isomer, unassigned) [Example 52, 4-{[2-(5-{5-chloro-2-[4-(difluoromethyl)-1H-1,2,3-triazol-1-yl]phenyl}-1-oxidopyridin-2-yl)-3-cyclopropylpropanoyl]amino}benzoic acid]
4.7 | 678 | O=C(O)c1ccc(NC(=O)C(CC2CC2)c2ccc(-c3cc(Cl)ccc3-n3ccnn3)c[n+]2[O-])cc1 (single isomer, unassigned) [Example 54, 4-[(2-{5-[5-chloro-2-(1H-1,2,3-triazol-1-yl)phenyl]-1-oxidopyridin-2-yl}-3-cyclopropylpropanoyl)amino]benzoic acid]

— patent publication US9783530B2, “Factor Xla inhibitors” (Merck Sharp & Dohme Corp., priority 2014, dated 2017)
